Values quoted from earlier work, collected in patent publication US7858659B2, “Redox therapy for tumors” (priority 2003, dated 2010).
≈ marks a conversion by molar mass, not a printed value. Like-named read-outs stand apart in the source and are kept apart here.

Legend:
malignant cells [1] = conditions: Table 1; BSO: [Kito]; cited from earlier work
mice/rats = conditions: cited from earlier work
[2] = target: T1, glutathione reductase (GR) (Mus musculus, UniProt P47791); conditions: Cohen 1988, cited from earlier work
T1 construct: recovery of enzyme activity in exponentially growing murine leukemia (L1210) cells treated with 1,3-bis(2-chloroethyl)-1-nitrosourea
T1 sequence (P47791 27-500): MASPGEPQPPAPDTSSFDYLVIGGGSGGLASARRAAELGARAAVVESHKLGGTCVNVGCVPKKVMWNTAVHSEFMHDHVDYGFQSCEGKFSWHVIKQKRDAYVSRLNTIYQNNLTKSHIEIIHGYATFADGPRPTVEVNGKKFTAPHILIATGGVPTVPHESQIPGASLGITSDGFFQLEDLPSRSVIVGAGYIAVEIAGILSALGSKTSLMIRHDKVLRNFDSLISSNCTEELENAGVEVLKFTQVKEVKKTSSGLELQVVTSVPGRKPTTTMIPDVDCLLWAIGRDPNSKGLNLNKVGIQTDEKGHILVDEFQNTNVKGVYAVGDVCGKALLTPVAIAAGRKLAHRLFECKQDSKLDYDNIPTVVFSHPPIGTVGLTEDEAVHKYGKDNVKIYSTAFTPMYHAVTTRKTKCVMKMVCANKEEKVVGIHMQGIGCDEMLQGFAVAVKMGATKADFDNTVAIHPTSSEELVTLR

malignant cells [3] = conditions: cited from earlier work; for Effective Concentration in vitro: Example 4 table; for Concentration: Table 1
[4] = cited from earlier work; for Solubility: Example 4 table
mice = conditions: mouse, in vivo; cited from earlier work
[5] = Example 4 table; cited from earlier work
malignant cells [6] = conditions: BSO by itself; Dai et al. 1999; cited from earlier work
neuroblastoma cells = conditions: Nicole et al. 1998; cited from earlier work
adults = conditions: cited from earlier work
[7] = test system: prostate cancer cell lines; conditions: green tea phenols; cited from earlier work
U937 cancer cells = conditions: Lizard et al. 1998; cited from earlier work
A-427 and A-172 = conditions: various cancer cell lines, such as A-427 and A-172; cited from earlier work
[8] = test system: normal human bronchial fibroblasts and human bronchial epithelial cells; conditions: cited from earlier work
rats = conditions: cited from earlier work
[9] = test system: Jurkat T-cell leukemia cells; conditions: Sen et al. 1999; cited from earlier work
normal lymphocytes = conditions: Sen et al. 1999; cited from earlier work

## O=NN(CCCl)C(=O)NCCCl [Carmustine, N,N′-bis(2-chloroethyl)-N-nitrosourea]
Malignant cells [1]
  apoptosis: Induction
mice/rats
  LD50 [Merck]: 25 to 30 mg/kg
[2]; 12 hours, de novo synthesis
  activity of GR restored: 50%
[2]; 24 hours, de novo synthesis
  GR restored: 70%
[2]; only carmustine present
  concentration with which GR is inhibited: 10 µM
[2]; with 10 μM
  time within which GR is inhibited: ½
Malignant cells [3]
  Effective Concentration in vitro: 0.05 µM
Malignant cells [3]; [Cohen & Duval]
  Concentration: 50 ng/mL
[4]
  Solubility: 40 µM (≈ 8.56 µg/mL)
[4]; Table 1
  Solubility [Merck]: 4 mg/L (≈ 18.7 µM)

## CCCCS(=N)(=O)CCC(N)C(=O)O (stereo not drawn) [BSO, buthionine sulfoximine]
Malignant cells [1]
  apoptosis: Enhancement [Kito]
mice
  Toxicity: 9.6 g/kg (mice) →
[5]
  Toxicity: 10,000 microM
Malignant cells [3]
  Effective Concentration in vitro: 100 µM
Malignant cells [3]; disulfiram: [Cen]
  Concentration: 10 to 25 µM
Malignant cells [6]
  apoptosis: did not induce significant apoptosis
  decrease in [GSH] in the cell: 70%
Neuroblastoma cells
  apoptosis: induced apoptosis
  decrease of GSH content: 98%
[4]
  Solubility: soluble
[4]; Table 1, in words
  Solubility [Merck]: Soluble
adults; [Bailey]
  Toxicity: nausea/vomiting: occasional

## O=C(O[C@@H]1Cc2c(O)cc(O)cc2O[C@@H]1c1cc(O)c(O)c(O)c1)c1cc(O)c(O)c(O)c1 [(−)-epigallocatechin-3-gallate]
[7]
  apoptosis: induced apoptosis

## CC(C)CCC[C@@H](C)[C@H]1CC[C@H]2[C@@H]3C(=O)C=C4C[C@@H](O)CC[C@]4(C)[C@H]3CC[C@]12C [7-ketocholesterol]
U937 cancer cells
  apoptosis: induced apoptosis

## C=CC=O [acrolein]
A-427 and A-172
  cytotoxicity: induced cytotoxicity
[8]
  toxicity to normal cells: highly toxic

## CCN(CC)C(=S)SSC(=S)N(CC)CC [Disulfiram]
[5]
  Toxicity: 10,000 microM
[4]
  Solubility: 2,000 microM
[4]; Table 1
  Solubility [Merck]: 0.02 g/100 ml
rats
  LD50 [Merck]: 8600 mg/kg (rats)
adults; adults
  Toxicity: 3 g (adults)

## O=C(O)CCCCC1CCSS1 (stereo not drawn) [α-lipoic acid]
[9]
  apoptosis: underwent apoptosis
Normal lymphocytes
  apoptosis: did not
